According to US10145848B2, “Small-molecule hydrophobic tagging of fusion proteins and induced degradation of same” (YALE UNIVERSITY, priority 2010, dated 2018):
“Also recorded” adds a separate entry of the source.

What was measured:
[1] = test system: NIH-3T3 cells expressing HA-HaloTag-H-RasG12V; assay: Tumor formation assay in nude mice; assay type: in vivo; settings: 25 mg/kg or 100 mg/kg daily IP
Description: One hundred thousand NIH-3T3 cells expressing HA-HaloTag-H-RasG12V were injected into the flank of anesthetized 6-week old female nu/nu nude mice (Charles River Laboratories). Two hours later, the mice were IP injected with either vehicle (10 μl, volume, with 5 μl, DMSO and 5 μl, of Cremophor EL), 25 mg/kg HyT13 or 100 mg/kg HyT13. The drug injections continued daily until the end of the experiment. Upon the appearance of tumors on day 7, the tumors were measured daily with calipers, and their volumes were calculated using the formula: a(b)^2/2, where a and b represent the longest and shortest diameters of the tumor, respectively.
(§1) To examine whether the HaloTag:HyT13 based system could be used in mouse models to relieve the H-RasG12V-driven tumor burden, we first evaluated the pharmacokinetics of HyT13. We performed a maximum tolerated dose experiment with HyT13 in nude mice at doses up to 100 mg/kg over a 14-day treatment regimen. […] Next, we sought to determine the serum bioavailability of HyT13 following injections. HyT13 was administered at 25 mg/kg by intraperitoneal (IP) injection into Swiss Webster mice and the serum was collected at 1 and 24 hours post-injection. At 1 hour post HyT13 administration the blood serum concentration was approximately 2 μM, and by 24 hours the HyT13 concentration had dropped to about 500 nM (FIG. 10). […]

[2] = test system: transmembrane HA-HaloTag fusion proteins (Ror2, CD3E, CD9, GPR40, Frizzled-4); assay: Immunoblotting of transmembrane HA-HaloTag fusion proteins in HEK 293T cells; assay type: cell-based; settings: 1 μM, 24 hours
[3] = test system: HEK293 or HeLa cells; assay: Cell viability with Resazurin (alamarBlue); assay type: cell-based; settings: up to 20 μM, 24 hours
Description: HEK293 or HeLa cells were treated with indicated concentrations of HyT13 for 24 hours. The oxidation-reduction indicator Resazurin (alamarBlue, Invitrogen) was employed to determine cell viability.

[4] = test system: NIH-3T3 cells infected with HA-HaloTag-H-RasG12V; assay: Focus formation assay, HA-HaloTag-H-RasG12V cells; assay type: cell-based, mouse; settings: 1 μM, 1% FBS, day 6
Description: One hundred thousand NIH-3T3 cells infected with HA-HaloTag-H-RasG12V and HA-HaloTag(D106A)-H-RasG12V were plated onto 10-cm cell culture plates in 10% FBS with DMEM. The next day, the media was replaced with 1% FBS media and the cells were administered either vehicle or 1 μM HyT13. The media and the drug were replaced every two days. On day 6, the foci were photographed and counted as the number of distinct foci per 1-cm^2 area.
We next explored the functional utility of HaloTag-based degradation of an oncogene by HyT13 both in cell culture and in mice. The small GTPase H-Ras is one of the most commonly mutated genes in cancer, with up to […] of cancers harboring activating mutations in this gene^35. Activating mutations, such as the H-RasG12V allele, lead to decreased dependence on extracellular mitogenic signals. […] When H-RasG12V expressing cells are grown in culture under low serum conditions they lose cell-to-cell contact inhibition and form distinct foci instead of growing as a cellular monolayer. Furthermore, these transformed cells are capable of tumor formation when injected into immuno-compromised nude mice^36,37. We investigated whether (1) HaloTag-H-RasG12V driven focus formation can be suppressed in NIH-3T3 cells and (2) HaloTag-H-RasG12V driven tumor burden in mice can be reduced by administration of HyT13. […]

[5] = biological target: T1, EGFP-HaloTag (Rhodococcus rhodochrous, UniProt P0A3G2, C176G/H272F/K175M/Y273L); assay: Flow cytometry of intracellular GFP fluorescence in HeLa cells expressing EGFP-HaloTag; assay type: cell-based; settings: 1 μM, 24 hours
T1 construct: The HaloTag protein was obtained from pHT2 vector (Promega); expressed in transfected cells
Description: Stable HeLa cells were raised by cotransfection of pCS2/EGFP-HaloTag and p-Puro containing the puromycin resistance gene. A clonal population of cells expressing EGFP-HaloTag was isolated. These cells were treated with vehicle or 1 μM HyT13 for 24 hours, washed with PBS and trypsinized. The cells were resuspended in FBS-free DMEM and the intracellular GFP level was measured by FACSCalibur (BD Biosciences).
As the luciferase assay relied on the loss-of-activity of the luciferase-HaloTag fusion protein, we wanted to determine whether the decrease in luciferase activity resulted from the degradation of the entire fusion protein or perhaps simply inhibition of luciferase activity. We generated a stable Flp-In 293 cell line with a single integration site containing HA-EGFP-HaloTag fusion protein, and employed this cell line to perform kinetic studies with HyT13. […] Consistent with our previous observations, treatment of these cells with 1 μM of HyT13 for 24 hours reduced the mean fluorescence intensity of cells almost 7-fold. Together, these findings provide the first experimental evidence that hydrophobic tagging represents a viable strategy for the control of protein levels.

[6] = Serum HyT13 determination (bio-reporter assay); assay type: in vivo; settings: mouse, intraperitoneal, 25 mg/kg IP, Swiss Webster mice, read-out: blood serum concentration
Description: Webster Swiss mice received IP injections of 25 mg/kg of HyT13. The injection volume was 10 μL, consisting of 5 μL, of Cremophor EL excipient and 5 μL, of HyT13 in DMSO. Blood was collected from the carotid artery 1 and 24 hours after the injection. The blood was allowed to coagulate for 10 minutes, centrifuged at 10,000 g for 5 minutes and the serum was pipetted into a new tube. Ten microliters of the serum were used for a bio-reporter assay, consisting of the ability to degrade luciferase activity in HEK 293T luciferase-HaloTag cells. The serum concentration of HyT13 was based on a concentration curve of HyT13 performed alongside the bio-reporter assay. […] Each treatment group consisted of three mice. Shown is the mean serum HyT13 level±SEM.
as §1, with “post-injection.” for “post-injection. At 1 hour post HyT13 administration the blood serum concentration was approximately 2 μM, and by 24 hours the HyT13 concentration had dropped to about 500 nM (FIG. 10).”

## O=C(CC12CC3CC(CC(C3)C1)C2)NCCOCCOCCCCCCCl [HyT13, 2-((3r,5r,7r)-Adamantan-1-yl)-N-(2-(2-((6-chlorohexyl)oxy)ethoxy)ethyl)acetamide]
[1]
  tumor size relative to vehicle treated mice (times smaller): 6 times
[2]
  degradation of transmembrane HaloTag fusion proteins: efficiently induced their degradation
[3]
  cellular toxicity: No cellular toxicity was observed; also recorded: lack of noticeable HyT13 cytotoxicity; also recorded: exhibits no toxicity
[4]
  focus formation: had grown a normal monolayer of cells
[5]
  reduction of mean fluorescence intensity: ~7 fold
[6]; 1 hour post administration
  concentration at 1 h: ~2000 nM
[6]; 24 hours
  concentration at 24 h: ~500 nM
